In patent US9085576B2 (AMGEN INC., priority 2013, dated 2015):

What was measured:
[1] = molecular target: BACE (Homo sapiens (Human), UniProt P56817); test: In vitro BACE cell-based assay (Aβ40 in conditioned medium, sandwich ELISA)
[2] = molecular target: Beta Secretase enzyme (BACE) (Homo sapiens (Human), UniProt P56817); test: In vitro enzymatic BACE FRET assay; assay type: biochemical; conditions: read-out: BACE1 Enzyme assay IC50
[3] = molecular target: Cathepsin D (Cat D) (Homo sapiens (Human), UniProt P07339); test: In vitro enzymatic Cathepsin D (Cat D) FRET assay; assay type: biochemical; conditions: read-out: CatD IC50
Cathepsin D (Cat D), sequence (P07339 65-412, species assumed): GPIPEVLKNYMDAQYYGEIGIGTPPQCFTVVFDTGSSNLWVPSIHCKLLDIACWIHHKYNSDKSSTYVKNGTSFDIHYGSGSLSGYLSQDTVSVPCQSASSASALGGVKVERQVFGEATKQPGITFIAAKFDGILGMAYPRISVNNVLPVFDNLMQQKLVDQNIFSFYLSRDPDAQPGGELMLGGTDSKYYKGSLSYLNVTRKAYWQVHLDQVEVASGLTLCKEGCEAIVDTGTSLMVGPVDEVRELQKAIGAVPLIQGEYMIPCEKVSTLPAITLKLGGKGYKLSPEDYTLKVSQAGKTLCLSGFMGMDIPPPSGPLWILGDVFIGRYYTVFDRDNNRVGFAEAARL

Beta Secretase enzyme (BACE), sequence (P56817 46-501): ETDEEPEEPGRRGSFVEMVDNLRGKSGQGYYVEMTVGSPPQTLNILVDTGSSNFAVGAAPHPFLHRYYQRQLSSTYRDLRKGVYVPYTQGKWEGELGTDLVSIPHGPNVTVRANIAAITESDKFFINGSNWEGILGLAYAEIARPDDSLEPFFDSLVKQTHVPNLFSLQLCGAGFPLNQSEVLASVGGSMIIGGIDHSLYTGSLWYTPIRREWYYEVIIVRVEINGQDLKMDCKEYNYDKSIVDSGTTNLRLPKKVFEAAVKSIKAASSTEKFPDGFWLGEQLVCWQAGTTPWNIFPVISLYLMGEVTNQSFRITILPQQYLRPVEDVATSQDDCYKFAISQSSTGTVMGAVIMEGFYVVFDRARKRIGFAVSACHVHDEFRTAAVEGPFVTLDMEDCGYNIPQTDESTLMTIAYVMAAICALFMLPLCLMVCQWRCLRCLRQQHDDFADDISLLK
BACE, sequence (P56817 46-501, species assumed): as the sequence (P56817 46-501) above

| IC50 [1] | IC50 [2] | IC50 [3] | Compound |
| --- | --- | --- | --- |
| 0.0067 µM | 0.034 µM | 373 µM | COc1cnc(C(=O)Nc2cc(Cl)c(F)c([C@@]3(CF)N=C(N)O[C@@H]4C[C@@H]43)c2)cn1 [Example 85, N-(3-((1R,5S,6R)-3-amino-5-(fluoromethyl)-2-oxa-4-azabicyclo[4.1.0]hept-3-en-5-yl)-5-chloro-4-fluorophenyl)-5-methoxypyrazine-2-carboxamide] |
| 0.0094 µM | 0.0759 µM | 892 µM | COc1cc(C#N)cnc1C(=O)Nc1cc(Cl)c(F)c([C@@]2(CF)N=C(N)O[C@@H]3C[C@@H]32)c1 [Example 86, N-(3-((1R,5S,6R)-3-amino-5-(fluoromethyl)-2-oxa-4-azabicyclo[4.1.0]hept-3-en-5-yl)-5-chloro-4-fluorophenyl)-5-cyano-3-methoxypicolinamide] |
| 0.0135 µM | 0.0323 µM | 164 µM | Cc1cc(OC(F)F)cnc1C(=O)Nc1cc(Cl)c(F)c([C@@]2(CF)N=C(N)O[C@@H]3C[C@@H]32)c1 [Example 87, N-(3-((1R,5S,6R)-3-amino-5-(fluoromethyl)-2-oxa-4-azabicyclo[4.1.0]hept-3-en-5-yl)-5-chloro-4-fluorophenyl)-5-(difluoromethoxy)-3-methylpicolinamide] |
| 0.0098 µM | 0.0294 µM | 302 µM | N#Cc1ccc(C(=O)Nc2cc(Cl)c(F)c([C@@]3(CF)N=C(N)O[C@@H]4C[C@@H]43)c2)nc1 [Example 88, N-(3-((1R,5S,6R)-3-amino-5-(fluoromethyl)-2-oxa-4-azabicyclo[4.1.0]hept-3-en-5-yl)-5-chloro-4-fluorophenyl)-5-cyanopicolinamide] |
| 0.0245 µM | 0.0731 µM | 574 µM | COc1cnc(C(=O)Nc2cc(Cl)c(F)c([C@@]3(CF)N=C(N)O[C@@H]4C[C@@H]43)c2)c(C)n1 [Example 89, N-(3-((1R,5S,6R)-3-amino-5-(fluoromethyl)-2-oxa-4-azabicyclo[4.1.0]hept-3-en-5-yl)-5-chloro-4-fluorophenyl)-5-methoxy-3-methylpyrazine-2-carboxamide] |
| 0.0073 µM | 0.0506 µM | 260 µM | Cc1cc(C#N)cnc1C(=O)Nc1cc(Cl)c(F)c([C@@]2(CF)N=C(N)O[C@@H]3C[C@@H]32)c1 [Example 91, N-(3-((1R,5S,6R)-3-amino-5-(fluoromethyl)-2-oxa-4-azabicyclo[4.1.0]hept-3-en-5-yl)-5-chloro-4-fluorophenyl)-5-cyano-3-methylpicolinamide] |
| > 15.6 µM | 17.1 µM | 770 µM | NC1=N[C@](c2cc(NC(=O)c3ccc(Cl)cn3)ccc2Cl)(C(F)F)[C@@H]2C[C@@H]2O1 [Example 92, N-(3-((1S,5R,6S)-3-amino-5-(difluoromethyl)-2-oxa-4-azabicyclo[4.1.0]hept-3-en-5-yl)-4-chlorophenyl)-5-chloropicolinamide] |
| 0.0209 µM | 0.0611 µM | 190 µM | COc1ccc(C(=O)Nc2ccc(Cl)c([C@@]3(C(F)F)N=C(N)O[C@@H]4C[C@@H]43)c2)nc1 [Example 100, N-(3-((1R,5S,6R)-3-amino-5-(difluoromethyl)-2-oxa-4-azabicyclo[4.1.0]hept-3-en-5-yl)-4-chlorophenyl)-5-methoxypicolinamide] |
| 0.0598 µM | 0.0971 µM | 258 µM | COc1cnc(C(=O)Nc2ccc(Cl)c([C@@]3(C(F)F)N=C(N)O[C@@H]4C[C@@H]43)c2)c(C)c1 [Example 101, N-(3-((1R,5S,6R)-3-amino-5-(difluoromethyl)-2-oxa-4-azabicyclo[4.1.0]hept-3-en-5-yl)-4-chlorophenyl)-5-methoxy-3-methylpicolinamide] |
| 0.013 µM | 0.0356 µM | 592 µM | NC1=N[C@@](c2cc(NC(=O)c3cnc(OCc4cocn4)cn3)ccc2Cl)(C(F)F)[C@H]2C[C@H]2O1 [Example 102, N-(3-((1R,5S,6R)-3-amino-5-(difluoromethyl)-2-oxa-4-azabicyclo[4.1.0]hept-3-en-5-yl)-4-chlorophenyl)-5-(oxazol-4-ylmethoxy)pyrazine-2-carboxamide] |
| 0.0574 µM | 0.121 µM | 763 µM | COc1cnc(C(=O)Nc2ccc(F)c([C@@]3(C(F)F)N=C(N)O[C@@H]4C[C@@H]43)c2)nc1 [Example 103, N-(3-((1R,5S,6R)-3-amino-5-(difluoromethyl)-2-oxa-4-azabicyclo[4.1.0]hept-3-en-5-yl)-4-fluorophenyl)-5-methoxypyrimidine-2-carboxamide] |
| 0.0339 µM | 0.0873 µM | 374 µM | COc1cnc(C(=O)Nc2ccc(Cl)c([C@@]3(C(F)F)N=C(N)O[C@@H]4C[C@@H]43)c2)nc1 [Example 104, N-(3-((1R,5S,6R)-3-amino-5-(difluoromethyl)-2-oxa-4-azabicyclo[4.1.0]hept-3-en-5-yl)-4-chlorophenyl)-5-methoxypyrimidine-2-carboxamide] |
| 0.0198 µM | 0.0098 µM | 158 µM | NC1=N[C@@](c2cc(NC(=O)c3nn(C(F)F)cc3Cl)cc(F)c2F)(C(F)F)[C@H]2C[C@H]2O1 [Example 114, N-(3-((1R,5S,6R)-3-amino-5-(difluoromethyl)-2-oxa-4-azabicyclo[4.1.0]hept-3-en-5-yl)-4,5-difluorophenyl)-4-chloro-1-(difluoromethyl)-1H-pyrazole-3-carboxamide] |
| 0.221 µM | 1.56 µM | 1280 µM | NC1=N[C@@](CF)(c2cc(NC(=O)c3ccc(Cl)cn3)ccc2F)[C@@H]2C[C@@H]2O1 [Example 118, N-(3-((1S,5R,6S)-3-amino-5-(fluoromethyl)-2-oxa-4-azabicyclo[4.1.0]hept-3-en-5-yl)-4-fluorophenyl)-5-chloropicolinamide] |
| 0.0524 µM | 0.0559 µM | 2990 µM | NC1=N[C@@](c2cc(NC(=O)c3ncc(Cl)cn3)ccc2F)(C(F)F)[C@H]2C[C@H]2O1 [Example 119, N-(3-((1R,5S,6R)-3-amino-5-(difluoromethyl)-2-oxa-4-azabicyclo[4.1.0]hept-3-en-5-yl)-4-fluorophenyl)-5-chloropyrimidine-2-carboxamide] |
| 0.247 µM | 0.05 µM | 351 µM | Cc1nc(OCC(F)(F)F)cnc1C(=O)Nc1ccc(F)c([C@@]2(C(F)F)N=C(N)O[C@@H]3C[C@@H]32)c1 [Example 120, N-(3-((1R,5S,6R)-3-amino-5-(difluoromethyl)-2-oxa-4-azabicyclo[4.1.0]hept-3-en-5-yl)-4-fluorphenyl)-3-methyl-5-(2,2,2-trifluoroethoxy)pyrazine-2-carboxamide] |
| 0.0148 µM | 0.099 µM | 1070 µM | Cc1cc(C(F)F)cnc1C(=O)Nc1ccc(Cl)c([C@@]2(CF)N=C(N)O[C@@H]3C[C@@H]32)c1 [Example 122, N-(3-((1R,5S,6R)-3-amino-5-(fluoromethyl)-2-oxa-4-azabicyclo[4.1.0]hept-3-en-5-yl)-4-chlorophenyl)-5-(difluoromethyl)-3-methylpicolinamide] |
| 0.0086 µM | 0.0806 µM | > 400 µM | Cc1cc(C(F)(F)F)cnc1C(=O)Nc1ccc(Cl)c([C@@]2(CF)N=C(N)O[C@@H]3C[C@@H]32)c1 [Example 125, N-(3-((1R,5S,6R)-3-amino-5-(fluoromethyl)-2-oxa-4-azabicyclo[4.1.0]hept-3-en-5-yl)-4-chlorophenyl)-3-methyl-5-(trifluoromethyl) picolinamide] |
| 0.0146 µM | 0.0835 µM | 1200 µM | Cc1cc(OC(F)F)cnc1C(=O)Nc1ccc(Cl)c([C@@]2(CF)N=C(N)O[C@@H]3C[C@@H]32)c1 [Example 126, N-(3-((1R,5S,6R)-3-amino-5-(fluoromethyl)-2-oxa-4-azabicyclo[4.1.0]hept-3-en-5-yl)-4-chlorophenyl)-5-(difluoromethoxy)-3-methylpicolinamide] |
| 0.0161 µM | 0.0508 µM | 1000 µM | COCc1cc(Cl)cnc1C(=O)Nc1ccc(Cl)c([C@@]2(CF)N=C(N)O[C@@H]3C[C@@H]32)c1 [Example 128, N-(3-((1R,5S,6R)-3-amino-5-(fluoromethyl)-2-oxa-4-azabicyclo[4.1.0]hept-3-en-5-yl)-4-chlorophenyl)-5-chloro-3-(methoxymethyl) picolinamide] |
| 0.0403 µM | 0.0389 µM | 1280 µM | NC1=N[C@@](c2cc(NC(=O)c3ncc(Cl)cc3F)ccc2F)(C(F)F)[C@H]2C[C@H]2O1 [Example 129] |
| 0.0809 µM | 0.185 µM | 342 µM | COc1cnc(C(=O)Nc2ccc(F)c([C@@]3(C(F)F)N=C(N)O[C@@H]4C[C@@H]43)c2)c(C)c1 [Example 131, N-(3-((1R,5S,6R)-3-amino-5-(difluoromethyl)-2-oxa-4-azabicyclo[4.1.0]hept-3-en-5-yl)-4-fluorophenyl)-5-methoxy-3-methylpicolinamide] |
| 0.0158 µM | 0.023 µM | 558 µM | Cc1cc(NC(=O)c2ncc(C#N)cc2Cl)cc([C@@]2(C(F)F)N=C(N)O[C@@H]3C[C@@H]32)c1F [Example 133] |
| 0.0604 µM | 0.131 µM | 1110 µM | COc1cc(Cl)cnc1C(=O)Nc1cc(C)c(F)c([C@@]2(C(F)F)N=C(N)O[C@@H]3C[C@@H]32)c1 [Example 134, N-(3-((1R,5S,6R)-3-amino-5-(difluoromethyl)-2-oxa-4-azabicyclo[4.1.0]hept-3-en-5-yl)-4-fluoro-5-methylphenyl)-5-chloro-3-methoxypicolinamide] |
| 0.0199 µM | 0.0256 µM | 494 µM | Cc1cc(NC(=O)c2ncc(Cl)cc2Cl)cc([C@@]2(C(F)F)N=C(N)O[C@@H]3C[C@@H]32)c1F [Example 135, N-(3-((1R,5S,6R)-3-amino-5-(difluoromethyl)-2-oxa-4-azabicyclo[4.1.0]hept-3-en-5-yl)-4-fluoro-5-methylphenyl)-3,5-dichloropicolinamide] |
